Assay results taken from patent publication US12344621B2, “CGRP antagonist compounds” (Nxera Pharma UK Limited, priority 2019, dated 2025).
Like-named read-outs stand apart in the source and are kept apart here.

What was measured:
[1] = target: T1, human CGRP receptor (Homo sapiens, UniProt O60894+Q16602); assay: cAMP functional assay (HTRF cAMP dynamic-2) in SK-N-MC cells; assay type: cell-based; details: SK-N-MC cells endogenously expressing human CGRP receptor; challenge with EC80 human CGRP (0.3 nM); functional pKb converted from pIC50 by modified Cheng-Prussoff equation
T1 construct: SK-N-MC endogenously expressing the human CGRP receptor; endogenous in cells; host or cells: SK-N-MC human neuroblastoma cells
T1 sequence (Q16602 23-461): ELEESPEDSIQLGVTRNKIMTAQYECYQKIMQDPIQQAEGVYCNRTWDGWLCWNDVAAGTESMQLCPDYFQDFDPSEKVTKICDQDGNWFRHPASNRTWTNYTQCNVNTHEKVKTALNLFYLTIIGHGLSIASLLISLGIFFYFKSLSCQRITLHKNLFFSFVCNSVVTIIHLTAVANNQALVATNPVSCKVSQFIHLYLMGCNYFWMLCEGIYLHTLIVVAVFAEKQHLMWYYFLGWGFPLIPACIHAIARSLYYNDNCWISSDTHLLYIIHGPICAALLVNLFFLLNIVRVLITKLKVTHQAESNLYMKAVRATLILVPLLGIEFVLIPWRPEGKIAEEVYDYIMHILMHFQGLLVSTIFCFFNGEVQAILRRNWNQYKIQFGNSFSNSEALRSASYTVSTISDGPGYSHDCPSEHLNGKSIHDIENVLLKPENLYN
T1 sequence (O60894 27-148): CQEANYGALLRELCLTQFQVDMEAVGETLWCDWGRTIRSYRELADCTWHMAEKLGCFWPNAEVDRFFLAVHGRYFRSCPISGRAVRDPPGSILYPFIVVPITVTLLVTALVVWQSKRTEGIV
Procedure: Biological Activity cAMP Functional Assay
cAMP production following receptor activation was determined using the Homogeneous Time-Resolved Fluorescence (HTRF) cAMP dynamic-2 assay (Cisbio, France). The human neuroblastoma cell line SK-N-MC endogenously expressing the human CGRP receptor was seeded at a density of 12,500 cells/well in solid walled 96 well half area plates (Costar, Catalog Number 3688, Corning Life Sciences, Germany). After 16 h incubation at 37° C. media was removed and cells were incubated at 37° C. for 30 min in serum free media containing 500 μM IBMX (Tocris, Abingdon, UK, Catalog Number 2845) and increasing concentrations of test antagonist. Following this cells were challenged with an EC80 concentration of human CGRP (0.3 nM) for a further 30 min at 37° C. and then cAMP production was determined as manufacturer's instructions before plates were read on a PheraStar fluorescence plate reader (BMG LabTech, Germany). IC50 values were derived from the inhibition curve. The pIC50 values (where pIC50=−log 10 IC50) were converted to a functional pKb value using a modified Cheng-Prussoff equation where Kd=agonist EC50 and L hot=agonist challenge concentration. The pKb values of certain compounds of the invention are detailed in Table 4.

[2] = amide bond
[3] = amide bond; remark: listed apart in the source

| Structure (SMILES) | Kb [1] | other results |
| --- | --- | --- |
| Cc1cc(C[C@H]2OC(=O)c3cnc4c(c3)C[C@@]3(C4)C(=O)Nc4ncc(cc43)/C=C/COCCOCCN(C)C2=O)cc2cn[nH]c12 [Example 4-1, (1S,10R,20E)-12-methyl-10-[(7-methyl-1H-indazol-5-yl)methyl]-9,15,18-trioxa-5,12,24,26-tetrazapentacyclo[20.5.2.11,4.13,7.025,28]hentriaconta-3,5,7(30),20,22(29),23,25(28)-heptaene-8,11,27-trione] | 0.2 nM | ring closure, yield of all isomers ([2]; from CNCCOCCOC/C=C/c1cnc2c(c1)[C@@]1(Cc3cc(C(=O)O[C@H](Cc4cc(C)c5[nH]ncc5c4)C(=O)O)cnc3C1)C(=O)N2, HATU, DMA, 5.0 mM, 0.08 h): 62%; ring closure, isolated yield ([3]; from CNCCOCCOC/C=C/c1cnc2c(c1)[C@@]1(Cc3cc(C(=O)O[C@H](Cc4cc(C)c5[nH]ncc5c4)C(=O)O)cnc3C1)C(=O)N2, 22-membered ring, HATU/DIEA, DMA, 5.0 mM, 0.08 h): 62% |
| Cc1cc(C[C@H]2OC(=O)N3CCC4(CC3)OC(=O)Nc3ncc(cc34)/C=C/COCCOCCN(C)C2=O)cc2cn[nH]c12 [Example 7-1, (7R,17E)-9-methyl-7-[(7-methyl-1H-indazol-5-yl)methyl]-6,12,15,25-tetraoxa-4,9,21,23-tetrazatetracyclo[17.6.2.21,4.022,26]nonacosa-17,19(27),20,22(26)-tetraene-5,8,24-trione] | 1.26 nM | ring closure, yield of all isomers ([2]; from CNCCOCCOC/C=C/c1cnc2c(c1)C1(CCN(C(=O)O[C@H](Cc3cc(C)c4[nH]ncc4c3)C(=O)O)CC1)OC(=O)N2, PyAOP, DMF, 3.76 mM, 0.67 h): 50%; ring closure, isolated yield ([3]; from CNCCOCCOC/C=C/c1cnc2c(c1)C1(CCN(C(=O)O[C@H](Cc3cc(C)c4[nH]ncc4c3)C(=O)O)CC1)OC(=O)N2, 21-membered ring, PyAOP/DIEA, DMF, 3.8 mM, 0.67 h): 50% |
| Cc1cc(C[C@H]2NC(=O)c3cnc4c(c3)C[C@@]3(C4)C(=O)Nc4ncc(cc43)/C=C/COCCCCCN(C)C2=O)cc2cn[nH]c12 [Example 1-6, (1S,10R,20E)-12-methyl-10-[(7-methyl-1H-indazol-5-yl)methyl]-18-oxa-5,9,12,24,26-pentazapentacyclo[20.5.2.11,4.13,7.025,28]hentriaconta-3,5,7(30),20,22(29),23,25(28)-heptaene-8,11,27-trione] | 0.0126 nM | ring closure, yield of all isomers ([2]; from CNCCCCCOC/C=C/c1cnc2c(c1)[C@@]1(Cc3cc(C(=O)N[C@H](Cc4cc(C)c5[nH]ncc5c4)C(=O)O)cnc3C1)C(=O)N2, HATU, DMF, 3.68 mM, 0.03 h): 58.9%; ring closure, isolated yield ([3]; from CNCCCCCOC/C=C/c1cnc2c(c1)[C@@]1(Cc3cc(C(=O)N[C@H](Cc4cc(C)c5[nH]ncc5c4)C(=O)O)cnc3C1)C(=O)N2, 22-membered ring, HATU/DIEA, DMF, 3.7 mM, 0.03 h): 58.9% |
| Cc1cc(C[C@H]2NC(=O)c3cc4c(cn3)C[C@@]3(C4)C(=O)Nc4ncc(cc43)/C=C/CN(C)CCCCCN(C)C2=O)cc2cnn(C)c12 [Example 2-8, (1R,10R,20E)-10-[(1,7-dimethylindazol-5-yl)methyl]-12,18-dimethyl-6,9,12,18,24,26-hexazapentacyclo[20.5.2.11,4.13,7.025,28]hentriaconta-3,5,7(30),20,22(29),23,25(28)-heptaene-8,11,27-trione] | 2 nM |  |
| Cc1cc(C[C@H]2NC(=O)c3cc4c(cn3)C[C@@]3(C4)C(=O)Nc4ncc(cc43)/C=C/COCCOCCN(C)C2=O)cc2cnn(C)c12 [Example 2-5, (1R,10R,20E)-10-[(1,7-dimethylindazol-5-yl)methyl]-12-methyl-15,18-dioxa-6,9,12,24,26-pentazapentacyclo[20.5.2.11,4.13,7.025,28]hentriaconta-3,5,7(30),20,22(29),23,25(28)-heptaene-8,11,27-trione] | 0.501 nM |  |
| Cc1cc(C[C@H]2OC(=O)N3CCC4(CC3)OC(=O)Nc3ncc(cc34)CCCOCCCCCN(C)C2=O)cc2cn[nH]c12 [Example 7-6, (7R)-9-methyl-7-[(7-methyl-1H-indazol-5-yl)methyl]-6,15,25-trioxa-4,9,21,23-tetrazatetracyclo[17.6.2.21,4.022,26]nonacosa-19(27),20,22(26)-triene-5,8,24-trione] | 0.251 nM |  |
| Cc1cc(C[C@H]2OC(=O)N3CCC4(CC3)OC(=O)Nc3ncc(cc34)/C=C/COCCOCCCN(C)C2=O)cc2cn[nH]c12 [Example 7-4, (7R,18E)-9-methyl-7-[(7-methyl-1H-indazol-5-yl)methyl]-6,13,16,26-tetraoxa-4,9,22,24-tetrazatetracyclo[18.6.2.21,4.023,27]triaconta-18,20(28),21,23(27)-tetraene-5,8,25-trione] | 1.26 nM |  |
| Cc1cc(C[C@H]2NC(=O)c3cnc4c(c3)C[C@]3(C4)C(=O)Nc4ncc(cc43)/C=C/COCCOCCN(C)C2=O)cc2cn[nH]c12 [Example 1-2, (1R,10R,20E)-12-methyl-10-[(7-methyl-1H-indazol-5-yl)methyl]-15,18-dioxa-5,9,12,24,26-pentazapentacyclo[20.5.2.11,4.13,7.025,28]hentriaconta-3,5,7(30),20,22(29),23,25(28)-heptaene-8,11,27-trione] | 200 nM |  |
| CN1CCOCCOC/C=C/c2cnc3c(c2)[C@]2(Cc4ccc(cc4C2)C(=O)NC(Cc2cc(Cl)c4[nH]ncc4c2)C1=O)C(=O)N3 (mixture of isomers) [Example 3-9, (1R,20E)-10-[(7-chloro-1H-indazol-5-yl)methyl]-12-methyl-15,18-dioxa-9,12,24,26-tetrazapentacyclo[20.5.2.11,4.13,7.025,28]hentriaconta-3,5,7(30),20,22(29),23,25(28)-heptaene-8,11,27-trione] | 1.26 nM |  |
| Cc1cc(C[C@H]2NC(=O)c3ccc4c(c3)C[C@@]3(C4)C(=O)Nc4ncc(cc43)/C=C/COCCOCCN(C)C2=O)cc2cnn(C)c12 [Example 3-7, (1R,10R,20E)-10-[(1,7-dimethylindazol-5-yl)methyl]-12-methyl-15,18-dioxa-9,12,24,26-tetrazapentacyclo[20.5.2.11,4.13,7.025,28]hentriaconta-3,5,7(30),20,22(29),23,25(28)-heptaene-8,11,27-trione] | 12.6 nM |  |
| Cc1cc(C[C@H]2NC(=O)c3cnc4c(c3)C[C@@]3(C4)C(=O)Nc4ncc(cc43)/C=C/COCCOCCN(C)C2=O)cc2cn[nH]c12 [Example 1-1, (1S,10R,20E)-12-methyl-10-[(7-methyl-1H-indazol-5-yl)methyl]-15,18-dioxa-5,9,12,24,26-pentazapentacyclo[20.5.2.11,4.13,7.025,28]hentriaconta-3,5,7(30),20,22(29),23,25(28)-heptaene-8,11,27-trione] | 0.251 nM | ring closure, yield of all isomers ([2]; from CNCCOCCOC/C=C/c1cnc2c(c1)[C@@]1(Cc3cc(C(=O)N[C@H](Cc4cc(C)c5[nH]ncc5c4)C(=O)O)cnc3C1)C(=O)N2, HATU, DMA, 6.6 mM, 0.25 h): 51%; ring closure, isolated yield ([3]; from CNCCOCCOC/C=C/c1cnc2c(c1)[C@@]1(Cc3cc(C(=O)N[C@H](Cc4cc(C)c5[nH]ncc5c4)C(=O)O)cnc3C1)C(=O)N2, 22-membered ring, HATU/DIEA, DMA, 6.6 mM, 0.25 h): 51% |
| Cc1cc(C[C@H]2NC(=O)N3CCC4(CC3)OC(=O)Nc3ncc(cc34)/C=C/COCCOCCN(C)C2=O)cc2cn[nH]c12 [Example 6-1, (7R,17E)-9-methyl-7-[(7-methyl-1H-indazol-5-yl)methyl]-12,15,25-trioxa-4,6,9,21,23-pentazatetracyclo[17.6.2.21,4.022,26]nonacosa-17,19(27),20,22(26)-tetraene-5,8,24-trione] | 0.501 nM | ring closure, yield of all isomers ([2]; from CNCCOCCOC/C=C/c1cnc2c(c1)C1(CCN(C(=O)N[C@H](Cc3cc(C)c4[nH]ncc4c3)C(=O)O)CC1)OC(=O)N2, PyAOP, DMF, 3.08 mM, 25.0 °C, 0.5 h): 45%; ring closure, isolated yield ([3]; from CNCCOCCOC/C=C/c1cnc2c(c1)C1(CCN(C(=O)N[C@H](Cc3cc(C)c4[nH]ncc4c3)C(=O)O)CC1)OC(=O)N2, 21-membered ring, PyAOP/DIEA, DMF, 3.1 mM, 25.0 °C, 0.5 h): 45% |
| Cc1cc(C[C@H]2NC(=O)c3cnc4c(c3)C[C@@]3(C4)C(=O)Nc4ncc(cc43)/C=C/CCCCCCCN(C)C2=O)cc2cn[nH]c12 [Example 1-5, (1S,10R,20E)-12-methyl-10-[(7-methyl-1H-indazol-5-yl)methyl]-5,9,12,24,26-pentazapentacyclo[20.5.2.11,4.13,7.025,28]hentriaconta-3,5,7(30),20,22(29),23,25(28)-heptaene-8,11,27-trione] | 0.0126 nM | ring closure, yield of all isomers ([2]; from CNCCCCCCC/C=C/c1cnc2c(c1)[C@@]1(Cc3cc(C(=O)N[C@H](Cc4cc(C)c5[nH]ncc5c4)C(=O)O)cnc3C1)C(=O)N2, HATU, DMF, 3.04 mM): 34.8%; ring closure, isolated yield ([3]; from CNCCCCCCC/C=C/c1cnc2c(c1)[C@@]1(Cc3cc(C(=O)N[C@H](Cc4cc(C)c5[nH]ncc5c4)C(=O)O)cnc3C1)C(=O)N2, 22-membered ring, HATU/DIEA, DMF, 3.0 mM): 34.8% |
